Measurements published in article PMC9144936, “New Cu^+2 Complexes with N-Sulfonamide Ligands: Potential Antitumor, Antibacterial, and Antioxidant Agents” (Molecules, 2022).

Experiments:
[1] = test system: human radical growth phase melanoma cell line (WM35); assay: MTT cytotoxicity assay, WM35; type: cell-based; settings: WM35 cells, MTT
Experimental: (§1) Three cell lines were used to determine the cytotoxicity of the complexes, a human cervical carcinoma line (HeLa), a human radical growth phase melanoma cell line (WM35), and a normal fibroblastic epithelial cell line (HFL1) using the MTT method. The cells were exposed to C1 and C2 complexes in different concentrations (50, 25, 12.5, 2, and 0.2 µM) at 24, 48, and 72 h. As positive contro, cisplatin was used.
(§2) To determine the cytotoxicity of the copper complexes, three cell lines were used: a human cervical carcinoma line (HeLa), a human radical growth phase melanoma cell line (WM35), and a normal fibroblastic epithelial cell line (HFL1). The cell lines were obtained from ATCC (American Type Cell Collection, Manassas, VA 20110-2209, USA) and were maintained in DMEM (Sigma-Aldrich, Saint Louis, Missouri, USA) supplemented with 10% fetal bovine serum (Hyclone), 1 mM glutamine (Sigma-Aldrich), and 1% antibiotic antimycotic 100× (Sigma-Aldrich). The cells were cultured at 37 °C in an atmosphere of 5% CO2 and 95% relative humidity.
(§3) The cytotoxicity assays were performed using the MTT assay (3-(4,5-dimethylthiazol-2-yl)-2,5-diphenyl tetrazolium bromide-Sigma Aldrich). Cells were plated at a density of 1 × 10^5 cells/well in 96-well plates for 24 h in normal propagation media. The cultures were then exposed to C1 and C2 complexes in different concentrations (50, 25, 12.5, 2, and 0.2 µM). The complexes were first solubilized in DMSO (Sigma) and then serial dilutions in media were performed until the final concentration of DMSO was less than 1%. As a positive control, cisplatin (Ebewe Pharma Ges.m.b.H. Nfg. KG, Austria) was used, in the same concentrations as the complexes. As a negative control, cell lines cultivated in normal expansion medium with the same amount of DMSO added were used. The cellular viability was determined using the MTT assay at 24, 48, and 72 h, respectively. Formazan particles were solubilized with DMSO and absorbances were determined at 550 nm using a microplate reader (Bio-Rad, Hercules, CA, USA). The cytotoxic activity, expressed as IC50 values representing the complex solution required to inhibit 50% of the cell proliferation, were calculated from the calibration curve by nonlinear regression. Each experiment was carried out in triplicate.

[2] = test system: human cervical carcinoma line (HeLa); assay: MTT cytotoxicity assay, HeLa; type: cell-based; settings: HeLa cells
Experimental: as §1, §2, §3

[3] = test system: normal fibroblastic epithelial cell line (HFL1); assay: MTT cytotoxicity assay, HFL1; type: cell-based; settings: HFL1 cells
Experimental: as §1, §2, §3

[4] = SOD mimetic activity, xanthine/xanthine oxidase system, NBT reduction; type: biochemical; settings: pH 7.8, read-out: SOD-like activity IC50 (50% inhibition of NBT reduction)
Experimental: The SOD-like activities of complexes C1 and C2 were determined by an indirect method using the xanthine/xanthine oxidase system as the source of superoxide radicals. […] The IC50 value for native Cu2Zn2SOD is 0.006 μΜ. Thus, the IC50 values for both complexes are higher than the IC50 value for native Cu2Zn2SOD but are similar to those of complexes with related sulfonamide ligands presented in the literature.
The in vitro SOD mimetic activities of the complexes were assayed using the Oberley and Spitz method with some minor modifications. To generate a reproductible and constant flux of superoxide anions, xanthine (1.5 × 10^−4 M) and xanthine oxidase in 50 mM potassium phosphate buffer, pH = 7.8, were used. The superoxide anions were detected by the reduction of nitro blue tetrazolium (NBT) (5.6 × 10^−5 M) to blue formazane, which was determined spectrophotometrically at 560 nm. Different concentrations of the complexes (50, 25, 12.5, 2, and 0.2 μM) were prepared in 50 mM Tris-HCl buffer, pH = 7.8. For each determination, 0.1 mL complex solution + 0.1 mL xanthine oxidase were added to 0.8 mL of solution containing 0.69 mL potassium phosphate buffer (pH = 7.8), 0.025 mL NBT, and […]. The inhibition percentage of NBT reduction was used to determine the SOD activities of the complexes. The conversion of xanthine to uric acid was measured at 310 nm. The % inhibition of enzyme activity was subtracted from that of NBT. The IC50 values (the concentration of complex needed to yield 50% inhibition of NBT reduction) were determined from plots of % inhibition versus complex concentration. A Specord 200 Plus Spectrophotometer was used to perform the determinations and all reagents were purchased from Sigma-Aldrich.

HeLa, WM35, HFL1 cells = type: cell-based
Experimental: as §1
This means that the cyytotoxicity is given by the complexes and that the chelation of the ligands with the copper ion is essential for the cytotoxicity of the complexes.
The cytotoxicity assays were performed using the MTT assay (3-(4,5-dimethylthiazol-2-yl)-2,5-diphenyl tetrazolium bromide-Sigma Aldrich). Cells were plated at a density of 1 × 10^5 cells/well in 96-well plates for 24 h in normal propagation media. The cultures were then exposed to C1 and C2 complexes in different concentrations (50, 25, 12.5, 2, and 0.2 µM). The complexes were first solubilized in DMSO (Sigma) and then serial dilutions in media were performed until the final concentration of DMSO was less than 1%. […] The cellular viability was determined using the MTT assay at 24, 48, and 72 h, respectively. Formazan particles were solubilized with DMSO and absorbances were determined at 550 nm using a microplate reader (Bio-Rad, Hercules, CA, USA). […]

[5] = test system: Escherichia coli ATCC 10536; assay: Disk diffusion method, E. coli; type: cell-based; settings: Escherichia coli, ATCC10536; complexes 5 µL of 1 mg/mL; 25 µg Amoxicillin, 5 µg Norfloxacin; 24 h, 37 °C; read-out: Halo Zone Test (diameter of the inhibition zone)
Excerpt: (§4) The disk diffusion method was used to determine the antibacterial activity of the C1 and C2 copper complexes on four reference microbial strains, two Gram-positive (Staphylococcus aureus and Bacillus cerreus) and two Gram-negative (Escherichia coli and Pseudomonas aeruginosa) strains. The disk diffusion method was used to determine the antibacterial activity of the C1 and C2 copper complexes. The method was adapted for the purposes of the current study, according to the standards developed by the Clinical and Laboratory Standards Institute. Four reference microbial strains, two Gram-positive (Staphylococcus aureus ATCC […] and Bacillus cerreus ATCC 14579) and two Gram-negative (Escherichia coli ATCC 10536 and Pseudomonas aeruginosa ATCC 27853) strains, were used for in vitro susceptibility testing. These reference microbial strains were obtained from the American Type Culture Collection (ATCC, Manassas, VA, USA). As positive controls, Amoxicillin (Oxoid Ltd., Basingstoke, UK) and Norfloxacin (Sigma-Aldrich) were used. For each of the four species, an initial suspension of bacterial cultures was inoculated on nutrient agar plates (Merck KGaA, Darmstadt, Germany), incubated for 24 h at 37 ± 2 °C and resuspended in a physiological saline buffer to a […] concentration (on a 0.5 McFarland scale), and further inoculated on Muëller Hinton agar plates (Merck KGaA, Darmstadt, Germany). […] After inoculation, the medium surface was dried and 8 wells were radially drilled 1.5 cm from the outer edge, 3 cm apart. From aliquot samples of 1 mg/mL of each copper complex dissolved in DMSO and incorporated in sterile liquid medium, 5 μL was placed in each of the 8 wells and left for 30 min to diffuse into the agar plates. The plates were then incubated for 24 h at 37 ± 2 °C. Then, 25 μg Amoxicillin and 5 μg Norfloxacin served as a positive controls, while DMSO 0.75% was used as a negative control. Readings were conducted by measuring the diameter of the inhibition zone (Halo Zone Test, in mm). The germ sensitivity of the copper complexes was estimated by comparing the diameter of the inhibition area to that generated by the regular antibiotics with known inhibition values. […] All tests were triplicated, and the measured diameters of the inhibition zone were expressed (in mm) as mean ± standard deviation.

[6] = test system: Staphylococcus aureus ATCC 6538P; assay: Disk diffusion method, S. aureus; type: cell-based; settings: Staphylococcus aureus, ATCC6538P; complexes 5 µL of 1 mg/mL; 25 µg Amoxicillin, 5 µg Norfloxacin; 24 h, 37 °C; read-out: Halo Zone Test (diameter of the inhibition zone)
Excerpt: as §4

[7] = test system: Bacillus cerreus ATCC 14579; assay: Disk diffusion method, B. cerreus; type: cell-based; settings: Bacillus, ATCC14579; complexes 5 µL of 1 mg/mL; 25 µg Amoxicillin, 5 µg Norfloxacin; 24 h, 37 °C; read-out: Halo Zone Test (diameter of the inhibition zone)
Excerpt: as §4

[8] = test system: Pseudomonas aeruginosa ATCC 27853; assay: Disk diffusion method, P. aeruginosa; type: cell-based; parameters: key to Halo Zone Test, class symbol: R = resistant; settings: 24 h, 37 °C
Excerpt: as §4

With N.N.[Cl][Pt][Cl] [Cisplatin, cisplatin, reference compound] the IC50 ([1]; 24 h) was 26.1 ± 0.43 µM, the IC50 ([1]; 48 h) was 11.15 ± 0.09 µM and the IC50 ([1]; 72 h) was 5.98 ± 0.03 µM. For the same compound, the IC50 ([2]; 24 h) was 21.03 ± 0.14 µM, the IC50 ([2]; 48 h) was 6.02 ± 0.19 µM and the IC50 ([2]; 72 h) was 2.39 ± 0.04 µM. It also gave an IC50 ([3]; 24 h) of 13.2 ± 0.89 µM, an IC50 ([3]; 48 h) of 3.99 ± 0.22 µM and an IC50 ([3]; 72 h) of 1.18 ± 0.13 µM.
With “Cu2Zn2SOD: native Cu2Zn2 superoxide dismutase enzyme, comparison for SOD-like activity” the IC50 [4] was 0.006 µM.
In the case of Cc1ccc(-c2nnc(NS(=O)(=O)c3cccc4ccccc34)s2)cc1 [HL1, N-(5-(4-methylphenyl)-[1,3,4]–thiadiazole–2-yl)-naphtalenesulfonamide], the “cytotoxicity of the free ligands” value (HeLa, WM35, HFL1 cells) is reported as “no significant cytotoxicity”.
Compound CCn1cc(C(=O)O)c(=O)c2cc(F)c(N3CCNCC3)cc21 [Norfloxacin, reference compound] has a zone of inhibition at 1000 µg/mL [5] of 20 ± 0.11 mm, a zone of inhibition at 1000 µg/mL [6] of 16 ± 0.21 mm and a zone of inhibition at 1000 µg/mL [7] of 18 ± 0.19 mm. The zone of inhibition at 1000 µg/mL ([8]; Pseudomonas aeruginosa, ATCC27853, complexes 5 µL of 1 mg/mL, 5 µg Norfloxacin, read-out: Halo Zone Test (diameter of the inhibition zone)) was 25 ± 0.24 mm.
CC1(C)S[C@@H]2[C@H](NC(=O)[C@H](N)c3ccc(O)cc3)C(=O)N2[C@H]1C(=O)O [Amoxicillin, reference compound] showed a zone of inhibition at 1000 µg/mL [5] of 18 ± 0.09 mm, a zone of inhibition at 1000 µg/mL [6] of 19 ± 0.14 mm and a zone of inhibition at 1000 µg/mL [7] of 13 ± 0.22 mm. For the same compound, the “Halo Zone Test, class symbol” value ([8]; 25 µg Amoxicillin) was “R”.
In the case of CCc1nnc(NS(=O)(=O)c2cccc3ccccc23)s1 [HL2, N-(5-ethyl-[1,3,4]–thiadiazole–2-yl)-naphtalenesulfonamide], the “cytotoxicity of the free ligands” value (HeLa, WM35, HFL1 cells) is reported as “no significant cytotoxicity”.
